# Measurements published in patent US10253085B2, “CD31 peptides for the treatment of thrombotic or autoimmune disorders” (INSERM (INSTITUT NATIONAL DE LA SANTE ET DE LA RECHERCHE …, priority 2008, dated 2019).
# Residues, ends and D or L forms follow the SMILES beside them.
# Experiments:
# [1] = target: T1, peptide 551-574 coated on CM5 chips (Mus musculus, UniProt Q08481); test: Surface plasmon resonance (BIAcore) homophilic binding of peptide 551-574; settings: homophilic interaction
# T1 construct: made in house; host or cells: chemical synthesis (no expression host)
# Protocol: Homophilic binding association and dissociation constants were calculated by surface plasmon resonance (BIAcore® 2000, GE). In brief, peptide 551-574 was coated at 3400 resonance units (RU) on CM5 chips according to the manufacturer's instructions. Soluble peptide 551-574 (12.5, 25, 50 and 100 μM in 200 μl of 10 mM HEPES pH 7.4, 150 mM NaCl, 0.005% Tween 20) was injected at 20 μl/min at 25° C., on the peptide-coated channel and on an uncoated channel. Dissociation was monitored for 300 seconds. Association (kon) and dissociation (koff) constants were calculated using the BlAevaluation® 3.0 Software (GE).
# [2] = system: scramble peptide; test: Surface plasmon resonance (BIAcore), channel coated with the scramble peptide; format: binding; settings: injection of soluble peptide
# [3] = system: apolipoprotein E^−/− mice; test: Angiotensin II infusion into aged apolipoprotein E-/- mice: atherosclerotic lesion size and aneurysm formation; format: in vivo, mouse
# Protocol: Male 28-week old apolipoprotein E^−/− mice (n=8-10 mice/group) from our breeding facility were maintained on a regular chow diet and kept under standard conditions. Acceleration of atherosclerosis and aneurysm formation was induced by subcutaneous angiotensin II (Sigma, #A9525) infusion (1 mg/kg/d) for 28 days using osmotic minipumps (Alzet, #2004) as previously described (Daugherty et al. J Clin Invest 105:1605-1612). All experiments were approved by our institutional Ethical committee. Atherosclerotic lesion size was measured as previously described (Caligiuri et al. 2005 Arterioscler Thromb Vasc Biol 25:1659-1664). These experiments were repeated twice with similar results.
# [4] = system: allogeneic mouse aortic smooth muscle cells; test: CD8+ T cell-mediated cytolytic activity against allogeneic smooth muscle cells; format: cell-based; settings: peptide 50 μM, 3 hours co-culture
# Protocol: CD8^+ T cell-mediated cytolytic activity against allogeneic mouse aortic smooth muscle cells and measurement of macrophage gelatinase (MMP-2/9) activity were performed as previously described for human cells in Caligiuri et al. (2006 Arterioscler Thromb Vasc Biol 26:618-623) using kits and reagents from Invitrogen. Briefly, primary cultures of FVB/N mouse aorta smooth muscle cells were labelled with the lipophylic tracer DIO (green) and co-cultured for 3 hours with CD8+ T cell-enriched spleen cells from C57Bl/6 mice (n=3 scramble peptide and n=3 peptide 551-574, 50 μM). Cytolysis was evaluated by intracellular accumulation of propidium iodide (PI). Cells were analysed by flow cytometry and the % of cytolysis was calculated by expressing the number of dead (PI+) cells among the target (DIO+) cells. Intracellular MMP-2/9 (gelatinase) activity was measured by flow cytometry in 7-day bone-marrow derived macrophages from C57Bl/6 mice (n=3 scramble peptide and n=3 peptide 551-574, 50 μM) three hours after the incorporation of OregonGreen® gelatine (MFI). […] (^3H) thymidine (0.5 μCi/well) was added for the last 16 hours and proliferation evaluated using a Tomtec harvester and analysis on a Wallac micro beta counter. Data are expressed as mean±SEM of cpm in triplicates.
# [5] = system: C57BL/6J mice immunized with MOG35-55 peptide; test: Experimental Autoimmune Encephalomyelitis (EAE) model; format: in vivo, mouse; settings: single peptide shot
# Protocol: Twelve-week old female C57BL/6J mice were immunized with 300 μg of MOG35-55 peptide emulsified in Complete Freund's Adjuvant 1:1 by volume containing 800 μg of nonviable desiccated Mycobacterium tuberculosis H37RA. A final volume of 200 μl of the emulsion was injected subcutaneously at 4 sites (50 μl/site) over the flanks. In addition, 300 ng of Pertussis toxin was injected intravenously (retro-orbital plexus) on the same day and 2 days later. Clinical signs of EAE ware assessed daily by the following scoring system: 0, no signs; 1, hindlimb weakness; 2, hindlimb weakness and tail paralysis; 3, hindlimb and tail paralysis; 4, hindlimb and tail paralysis and forelimb weakness; 5, moribund state; and 6, death. The peak (waxing phase) occured around day 21. In this C57BL/6J mouse model, there was no waning phase as assessed in our laboratory up to day 41.
# The experiment was carried out with ten mice per group. The mice of each group were treating with either of: • PBS; • PepReg (SEQ ID NO: 3); or • PepScra (SEQ ID NO: 14).
# The dosing was of 50 μg of peptide per mice and per day (i.e. about 2 mg/Kg per day). The peptide was administered by a subcutaneous injection.
compound,measurement,setting,value
CSCC[C@H](NC(=O)[C@H](CO)NC(=O)[C@@H](N)CO)C(=O)N[C@@H](CCCNC(=N)N)C(=O)N[C@H](C(=O)N[C@@H](CO)C(=O)N1CCC[C@H]1C(=O)N[C@@H](CCCNC(=N)N)C(=O)N[C@@H](CO)C(=O)N[C@@H](CO)C(=O)N[C@H](C(=O)N[C@@H](CC(C)C)C(=O)N[C@@H](C)C(=O)N[C@H](C(=O)N[C@@H](CCCNC(=N)N)C(=O)N[C@H](C(=O)N[C@@H](Cc1ccccc1)C(=O)N[C@@H](CC(C)C)C(=O)N[C@@H](C)C(=O)N1CCC[C@H]1C(=O)N[C@@H](Cc1c[nH]c2ccccc12)C(=O)N[C@@H](CCCCN)C(=O)N[C@@H](CCCCN)C(=O)O)C(C)C)C(C)C)[C@@H](C)O)[C@@H](C)O [peptide 551-574] (H-SSMRTSPRSSTLAVRVFLAPWKK-OH),kon,"[1]; 25° C., analyte 12.5-100 μM, read-out: association constant (kon)",134 ± 120 M⁻¹ s⁻¹
same,koff,"[1]; 25° C., read-out: dissociation constant (koff)",0.00158 s⁻¹
same,Kd,[1]; read-out: affinity at equilibrium,17.8 ± 9.7 µM
same,signal on a channel coated with the scramble peptide,[2],negligible signal
same,formation of atherothrombotic abdominal aortic aneurysms (AAA),[3]; daily subcutaneous administration of 50 μM,prevented
same,acceleration of plaque growth in the aortic root,"[3]; daily subcutaneous administration of 50 μM, 28 days angiotensin II",prevented
same,mice with abdominal aortic aneurysm (AAA) present,"[3]; peptide-treated mice, both experiments (Exp #1, Exp #2), controls 8/10 and 6/8",1/8
same,CD8+ T cell-dependent cytolysis of murine aortic smooth muscle cells,[4],inhibited
same,duration of protective effect in EAE,[5],up to 5 days
